Consider two compounds from ChEMBL document CHEMBL5335847, “Model of P-Glycoprotein Ligand Binding and Validation with Efflux Substrate Matched Pairs” (J Med Chem, 2024).

Data set [1] is described as follows: Apparent permeability of the compound across apical to basolateral side in human Caco-2 cells measured for 2 hrs by HPLC analysis. The data set is classed as ADME, cell-based.
For a further data set, the target named is Mu-type opioid receptor (Rattus norvegicus, UniProt P33535). Briefly: Antagonist activity at mu-opioid receptor in rat thalamus membrane assessed as inhibition of DAMGO-stimulated [35S]GTPgammaS binding incubated for 2 hrs by liquid scintillation spectrophotometry. The data set is classed as functional, cell membranes. (Binding of GTPγS marks nucleotide exchange on a G protein.)

The next data set deals with P-gp (ABCB1) (Homo sapiens, UniProt P08183). Briefly: Substrate activity at P-gp in human Caco-2 cells assessed as efflux ratio measured for 2 hrs by HPLC analysis. In kind it is ADME, cell-based. (In general: Caco-2 cells form a polarised layer with tight junctions and transporters.)

What is called Papp A→B is how fast a substance crosses the layer from the apical side. The term Ki denotes a measure of affinity in units of concentration, obtained from inhibition or displacement. By efflux ratio is commonly meant a quotient of directional permeabilities that is used to spot active efflux.

Chain of P-gp (ABCB1) (P08183 whole entry): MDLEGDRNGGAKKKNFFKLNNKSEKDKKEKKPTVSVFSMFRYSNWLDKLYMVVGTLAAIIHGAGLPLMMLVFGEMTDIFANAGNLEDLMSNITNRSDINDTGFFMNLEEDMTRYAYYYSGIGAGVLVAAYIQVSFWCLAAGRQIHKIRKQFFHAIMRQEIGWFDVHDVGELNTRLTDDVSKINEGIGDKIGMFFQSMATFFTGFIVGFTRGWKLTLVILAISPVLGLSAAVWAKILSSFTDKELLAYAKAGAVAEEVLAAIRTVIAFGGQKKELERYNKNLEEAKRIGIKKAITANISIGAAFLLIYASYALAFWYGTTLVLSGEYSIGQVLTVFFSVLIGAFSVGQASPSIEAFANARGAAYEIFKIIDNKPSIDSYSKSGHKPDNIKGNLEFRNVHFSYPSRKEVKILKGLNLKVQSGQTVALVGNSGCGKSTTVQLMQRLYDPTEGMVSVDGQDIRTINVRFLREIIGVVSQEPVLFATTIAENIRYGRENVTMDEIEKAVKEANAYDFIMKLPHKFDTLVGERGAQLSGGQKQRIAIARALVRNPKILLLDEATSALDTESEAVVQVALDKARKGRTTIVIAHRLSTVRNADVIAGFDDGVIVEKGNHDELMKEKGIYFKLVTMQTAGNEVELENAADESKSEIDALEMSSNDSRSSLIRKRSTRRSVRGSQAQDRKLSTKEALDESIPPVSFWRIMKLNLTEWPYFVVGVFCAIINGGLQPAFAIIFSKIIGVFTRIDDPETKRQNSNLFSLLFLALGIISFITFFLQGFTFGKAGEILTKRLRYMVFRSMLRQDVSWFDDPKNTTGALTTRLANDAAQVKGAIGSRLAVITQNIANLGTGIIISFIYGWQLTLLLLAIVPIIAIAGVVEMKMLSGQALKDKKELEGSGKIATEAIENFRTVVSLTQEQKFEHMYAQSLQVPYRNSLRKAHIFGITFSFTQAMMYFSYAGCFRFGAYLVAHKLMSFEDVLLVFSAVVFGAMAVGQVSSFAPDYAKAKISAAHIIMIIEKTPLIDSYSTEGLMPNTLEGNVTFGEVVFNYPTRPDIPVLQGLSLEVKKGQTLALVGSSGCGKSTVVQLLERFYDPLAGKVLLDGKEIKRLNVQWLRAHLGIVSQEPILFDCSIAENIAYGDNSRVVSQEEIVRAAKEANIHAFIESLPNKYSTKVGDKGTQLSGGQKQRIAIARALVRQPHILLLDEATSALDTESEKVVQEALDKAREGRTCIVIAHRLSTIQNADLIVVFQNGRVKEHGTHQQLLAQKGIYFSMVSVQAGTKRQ
Chain of Mu-type opioid receptor (P33535 whole entry): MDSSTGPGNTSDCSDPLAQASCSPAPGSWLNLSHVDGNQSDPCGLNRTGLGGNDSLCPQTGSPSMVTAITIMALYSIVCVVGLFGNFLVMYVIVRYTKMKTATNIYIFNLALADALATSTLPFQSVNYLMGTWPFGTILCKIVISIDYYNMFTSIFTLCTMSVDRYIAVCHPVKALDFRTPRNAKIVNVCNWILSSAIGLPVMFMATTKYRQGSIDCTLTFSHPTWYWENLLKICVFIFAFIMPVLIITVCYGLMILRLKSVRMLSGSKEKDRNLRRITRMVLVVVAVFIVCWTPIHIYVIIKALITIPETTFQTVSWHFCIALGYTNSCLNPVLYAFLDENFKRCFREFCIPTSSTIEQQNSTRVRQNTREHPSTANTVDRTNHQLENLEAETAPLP

As to `O=C(N[C@@H]1CC[C@@]2(O)[C@H]3Cc4ccc(O)c5c4[C@@]2(CCN3CC2CC2)[C@H]1O5)c1cc2ccccc2cn1`, the Papp A→B at 2 h in data set [1] came out at 3 ×10⁻⁶ cm/s. On Mu-type opioid receptor, the Ki came to 3.5 nM. Besides, the efflux ratio at 2 h on P-gp (ABCB1) was 1.3.

On to `O=C(N[C@@H]1CC[C@@]2(O)[C@H]3Cc4ccc(O)c5c4[C@@]2(CCN3CC2CC2)[C@H]1O5)c1ccncc1`, for which the apparent permeability from apical to basolateral (Papp A→B) at 2 h in data set [1] was less than 0.7 ×10⁻⁶ cm/s. Besides, the Ki on Mu-type opioid receptor was determined as 4.8 nM. Moreover, the efflux ratio at 2 h at P-gp (ABCB1) was more than 10.
